The text below walks through data of patent publication US5872148A, “Compositions useful as a cannabinoid receptor probe” (University of Connecticut, priority 1995, dated 1999).

The target of experiment [1] is T1, cannabinoid receptor (Rattus norvegicus, UniProt P20272).
T1 construct: membrane preparations from rat forebrains; from tissue; host or cells: rat forebrain membranes
Briefly: Receptor binding assay, [^3 H]CP-55,940, rat forebrain membrane, Tris buffer with bovine serum albumin. The settings on record: for affinity for the cannabinoid receptor (in words): demonstrated by IC50 values; for IC50: rat forebrain membrane, 0.8 nM [^3 H]CP-55,940, 0.1% bovine serum albumin, pH 7.4, 1 hour at 30° C. The protocol: The affinity of compositions of this invention for cannabinoid binding sites was tested by using membrane preparations from rat forebrains. A composition is tested by incubating various concentrations of the composition with approximately 50 μg of rat forebrain membrane, 20 mM Tris Buffer, 3 mM MgCl2, 1 mM EDTA (pH, 7.4) containing 0.1% bovine serum albumin, and 0.8 nM of the cannabinoid radioligand [^3 H]CP-55,940, (Dupont-NEN). Assays were incubated in Regisil-treated test tubes for 1 hour at 30° C. and were subsequently filtered on GF/C filters using a Brandell M-24 Cell Harvester. Following four washes with 20 mM Tris buffer (pH 7.4) and 3 mM MgCl2, the GF/C filters were collected, and shaken for 1 hour with 2 mL of 0.1% SDS. Ligand binding was counted on a Beckman liquid scintillation counter.
Non-specific binding was assessed from tubes containing 250 nM desacetyllevo-nantradol by the method described in W. A. Devane et al., Determination and Characterization of a Cannabinoid Receptor in Rat Brain, Mol. Pharmacol., 34:605 (1988). Data were collected from 3 experiments performed on 11-hydroxy-7'-azido-1',1'-dimethylheptyl-Δ^8 -THC and on 11-hydroxy-7'-isothiocyanate-1',1'-dimethyl-heptyl-Δ^8 -THC, each.

Experiment [2] deals with T1, cannabinoid receptor. Briefly: Receptor inactivation test (equilibration / photoirradiation), rat forebrain membranes. Format: binding. The settings on record: 1 hour at 30° C., azide: UV irradiated 13 minutes, washed. The protocol:
The ability of affinity ligands to inactivate the cannabinoid receptor in vitro was tested through photoirradiation experiments. All procedures involving affinity ligands were conducted in the dark using only a safety light. Rat forebrain membranes (1-3 mg) in 20 mM Tris Buffer, 3 mM MgCl2, and 1 mM EDTA (pH 7.4) were incubated with an appropriate amount of either 11-hydroxy-7'-azido-1',1'-dimethylheptyl-Δ^8 -THC or 11-hydroxy-7'-isothiocyanate-1',1'-dimethyl-heptyl-Δ^8 -THC, in a six-well culture plate for 1 hour at 30° C. At the end of the equilibration membranes incubated with 11-hydroxy-7'-azido-1',1'-dimethylheptyl-Δ^8 -THC were placed on ice and irradiated for 13 minutes with UV light. Membranes incubated with either of the two compounds were then pelleted using a bench top microcentrifuge. The pellets were subsequently washed at least three times with the working buffer containing 1 mg/mL bovine serum albumin, allowing at least 10 minutes between each wash for equilibration. The final pellets were resuspended in the working buffer and assayed for cannabinoid binding activity by the method of Devane et al., referenced above.

Experiment [3] relates to male ICR (Institute of Cancer Research) mice. Briefly: Sedation (decreased locomotor activity) in mice. In kind it is in vivo. Particulars: intravenous injection; for ED50: Mus musculus, read-out: Locomotion Inhibition, potency (ED50 value). The protocol: (§1) 5'-azido-THC was evaluated in vivo and compared to the parent compound (-)-Δ^8 -THC for cannabimimetic activity. Both analogs were tested in male ICR (Institute of Cancer Research) mice (Harlan, Frederick, Md.) following intravenous injection, for their abilities to produce sedation (decreased locomotor activity) and catalepsy (induction of ring immobility) as measures of drug-induced behavioral effects. They were also evaluated in the same mice for their abilities to produce hypothermia and antinociceptive activity in the mouse tail-flick assay.
(§2) The results obtained are shown in Table I. Dose-response data were analyzed statistically by ANOVA, and the potency (ED50 value) and efficacy (maximum effect) were determined. The maximum effects given represent percent inhibition (of locomotor activity), ° C. (of hypothermia), percent immobility (of catalepsy) and percent MPE (maximum possible effect of latency of antiociception procedure).
(§3) This evaluation was performed by methods described in M. D. Compton et al., J. Med. Chem., 34:3310 (1991), A. Makriyannis et al., Life Sci., 47:2173 (1990), and A. Charalandous et al., Pharmacol. Biochem. Behav., 40:509 (1991).

Experiment [4] has the same test system. Description: Hypothermia in mice. Particulars: for ED50: Mus musculus, read-out: Hypothermia (Δtemperature), potency (ED50 value); for ED50 / Hypothermia (Δtemperature), efficacy (maximum effect): intravenous injection, mice. Format: in vivo. The protocol: as §1, §2, §3
For experiment [5] the test system is unchanged. Briefly: Catalepsy (induction of ring immobility) in mice. In kind it is in vivo. The settings on record: for ED50: Mus musculus, read-out: Catalepsy Immobility, potency (ED50 value); for ED50 / Catalepsy Immobility, efficacy (maximum effect), percent immobility: intravenous injection, mice. The protocol:
as §1, §2, §3

Experiment [6] has the same test system. Briefly: Antinociceptive activity in the mouse tail-flick assay. Format: in vivo. The settings on record: intravenous injection; for ED50: Mus musculus, read-out: Antinociception MPE, potency (ED50 value). The protocol:
as §1, §2, §3
A general note: Thermal pain tests record how soon the animal reacts.

Experiment [7] addresses T1, cannabinoid receptor. Description: Alternate affinity test, [^3 H]CP-55,940, rat forebrain membrane, potassium diethyl malonate buffer with β-cyclodextrin. Format: binding. The settings on record: 100 fmol/mL [^3 H]CP-55,940, 0.01% β-cyclodextrin, pH 7.4, 1 hour at 30° C. The protocol: An alternate affinity test used approximately 30 μg of rat forebrain membrane in a buffer containing 20 mM potassium diethyl malonate (pH 7.4), 3 mM MgCl2, 0.01% β-cyclodextrin, and 100 fmol/mL [^3 H]CP-55,940, (Dupont-NEN). The assays were incubated in Regisil-treated test tubes for 1 hour at 30° C. and were subsequently filtered on GF/C filters. Just prior to filtration, 200 μL of 50 mg/mL bovine serum albumin is added. Following filtration, ligand binding was counted on a Beckman liquid scintillation counter.
Non-specific binding was assessed from tubes containing 100 nM desacetyllevo-nantradol by the method described in W. A. Devane et al., Determination and Characterization of a Cannabinoid Receptor in Rat Brain, Mol. Pharmacol., 34:605 (1988).

Experiment [8] concerns the target T1, cannabinoid receptor. Briefly: Alternate receptor inactivation test (equilibration and UV irradiation), rat forebrain membrane. The settings on record: 1 hour at 30° C., shortwave UV light. Format: binding. The protocol:
In an alternate receptor inactivation test, 0.5-3 mg of rat forebrain membrane was incubated with (-)5'-azido-Δ^8 -THC, previously resuspended in 5% β-cyclodextrin in 12-well tissue culture plates containing 1 mL of 20 mM potassium diethyl malonate (pH 7.4) and 0.01% β-cyclodextrin. The assay was incubated for 1 hour at 30° C. and then was placed on ice and irradiated for 13 minutes with shortwave UV light from a UVGL-25 mineralight at 10 cm distance […].

[9] abbreviates: milligram/kilogram basis, vs (-)-Δ^8 -THC.

Molecules are shown by their SMILES.

T1 sequence (P20272 whole entry): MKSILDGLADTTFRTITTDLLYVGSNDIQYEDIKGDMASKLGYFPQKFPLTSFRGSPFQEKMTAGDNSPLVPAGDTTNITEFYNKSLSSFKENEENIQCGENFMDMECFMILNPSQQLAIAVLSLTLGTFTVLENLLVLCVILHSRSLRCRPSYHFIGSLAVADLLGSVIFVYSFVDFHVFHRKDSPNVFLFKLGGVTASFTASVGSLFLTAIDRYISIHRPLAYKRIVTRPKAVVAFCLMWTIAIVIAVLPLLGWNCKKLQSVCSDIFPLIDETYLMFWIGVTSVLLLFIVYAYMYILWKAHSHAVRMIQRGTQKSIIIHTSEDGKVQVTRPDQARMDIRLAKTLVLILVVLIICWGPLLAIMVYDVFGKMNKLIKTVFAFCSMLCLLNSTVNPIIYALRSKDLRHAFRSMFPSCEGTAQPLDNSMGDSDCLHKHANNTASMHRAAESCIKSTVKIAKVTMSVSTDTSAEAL

With `CC(C)(CCCCCCN=[N+]=[N-])c1cc(O)c2c(c1)OC(C)(C)[C@@H]1CC=C(CO)C[C@@H]21` [11-hydroxy-7'-azido-1',1'-dimethylheptyl-Δ^8 -THC], on cannabinoid receptor [1], the “affinity for the cannabinoid receptor (in words)” value is “high affinity” and the IC50 came to 2.5 nM. The “ability to inactivate the cannabinoid receptor in vitro” value on cannabinoid receptor [2] is on record as “completely inactivate the cannabinoid receptor”.
`CC(C)(CCCCCCN=C=S)c1cc(O)c2c(c1)OC(C)(C)[C@@H]1CC=C(CO)C[C@@H]21` [11-hydroxy-7'-isothiocyanate-1',1'-dimethylheptyl-Δ^8 -THC]: at cannabinoid receptor [1], the “affinity for the cannabinoid receptor (in words)” value is reported as “high affinity” and the concentration for half-maximal inhibition (IC50) was determined as 1.5 nM. Also, the “ability to inactivate the cannabinoid receptor in vitro” value on cannabinoid receptor [2] was “completely inactivate the cannabinoid receptor”.
With `CC1=CC[C@@H]2[C@@H](C1)c1c(O)cc(CCCCCN=[N+]=[N-])cc1OC2(C)C` [(-)5'-azido-Δ^8 -THC], in experiment [3], the ED50 stood at 0.2 mg/kg and the “Locomotion Inhibition, efficacy (maximum effect), percent inhibition” value is 73%. Further, in experiment [4], the ED50 amounted to 0.8 mg/kg and the “Hypothermia (Δtemperature), efficacy (maximum effect)” value was -3.8 °C. For the same molecule, the “times more potent than the parent compound (hypothermia)” value in experiment [4] (setting [9]) turned out to be 19 times. Besides, in experiment [5], the median effective dose (ED50) worked out at 0.8 mg/kg and the “Catalepsy Immobility, efficacy (maximum effect), percent immobility” value is recorded as 57%. For the same molecule, the “times more potent than the parent compound (catalepsy)” value in experiment [5] (setting [9]) is 6.5 times. In addition, in experiment [6], the 50% effective dose (ED50) came to 0.1 mg/kg and the “Antinociception, efficacy (maximum effect), percent MPE (maximum possible effect)” value was 100%. The molecule also showed an IC50 on cannabinoid receptor [7] of 31 nM. Besides, at cannabinoid receptor [8], the “irreversible inactivation of the receptors” value is recorded as “did not irreversibly inactivate the receptors”; the “specific receptor binding in equilibrated and irradiated membranes” value is given as “no specific receptor binding was observed”.
For the molecule `CCCCCc1cc(O)c2c(c1)OC(C)(C)[C@@H]1CC=C(C)C[C@@H]21` [(-)-Δ^8 -THC, reference compound], in experiment [3], the ED50 worked out at 1.9 mg/kg and the “Locomotion Inhibition, efficacy (maximum effect), percent inhibition” value is given as 79%. Moreover, in experiment [4], the ED50 was 15.5 mg/kg and the “Hypothermia (Δtemperature), efficacy (maximum effect)” value is -5.9 °C. Further, in experiment [5], the median effective dose (ED50) amounted to 5.2 mg/kg and the “Catalepsy Immobility, efficacy (maximum effect), percent immobility” value is 58%. In addition, in experiment [6], the ED50 came out at 1.5 mg/kg and the “Antinociception, efficacy (maximum effect), percent MPE (maximum possible effect)” value was determined as 100%.

As usually defined, the IC50 is the point on the concentration scale where inhibition reaches its midpoint. A lower IC50 goes with higher potency. The term ED50 denotes the midpoint of the dose-response relation.
